Laboratory results: ChEMBL document CHEMBL4251553, “Synthesis, anticancer evaluation and pharmacokinetic study of novel 10-O-phenyl ethers of dihydroartemisinin” (Eur J Med Chem, 2017)
Activity calls are given as the source filed them. The calls are words filed in the database; no cut-off is given here.

Columns and labels:
MDA-MB-231 = test: Antiproliferative activity against human MDA-MB-231 cells after 96 hrs by MTT assay; type: functional; conditions: MDA-MB-231, 96 h
[1] = Selectivity ratio of GI50 for human MCF7 cells to GI50 for human MCF7/ADR cells; type: functional
MCF7 [2] = test: Cell cycle arrest in human MCF7 cells assessed as accumulation at sub-G1 phase at 1 uM after 24 hrs by propidium iodide staining based flow cytometry (reference value: 1.78%); type: functional
MCF7 [3] = test: Cell cycle arrest in human MCF7 cells assessed as accumulation at G0/G1 phase at 1 uM after 24 hrs by propidium iodide staining based flow cytometry (reference value: 57.83%); type: functional
MCF7 [4] = test: Cell cycle arrest in human MCF7 cells assessed as accumulation at sub-G1 phase at 0.5 uM after 48 hrs by propidium iodide staining based flow cytometry (reference value: 0.18%); type: functional
MCF7 [5] = test: Cell cycle arrest in human MCF7 cells assessed as accumulation at G2/M phase at 0.5 uM after 48 hrs by propidium iodide staining based flow cytometry (reference value: 24.26%); type: functional
MCF7 [6] = test: Cell cycle arrest in human MCF7 cells assessed as accumulation at sub-G1 phase at 1 uM after 48 hrs by propidium iodide staining based flow cytometry (reference value: 0.18%); type: functional
MCF7 [7] = test: Cell cycle arrest in human MCF7 cells assessed as accumulation at G2/M phase at 1 uM after 48 hrs by propidium iodide staining based flow cytometry (reference value: 24.26%); type: functional
NCI/ADR-RES [8] = test: Cell cycle arrest in human MCF7/ADR cells assessed as accumulation at S-phase at 1 uM after 24 hrs by propidium iodide staining based flow cytometry (reference value: 25.87%); type: functional
NCI/ADR-RES [9] = test: Cell cycle arrest in human MCF7/ADR cells assessed as accumulation at G2/M phase at 1 uM after 24 hrs by propidium iodide staining based flow cytometry (reference value: 27.75%); type: functional
NCI/ADR-RES [10] = test: Cell cycle arrest in human MCF7/ADR cells assessed as accumulation at G0/G1 phase at 0.5 uM after 48 hrs by propidium iodide staining based flow cytometry (reference value: 38.76%); type: functional
NCI/ADR-RES [11] = test: Cell cycle arrest in human MCF7/ADR cells assessed as accumulation at S-phase at 0.5 uM after 48 hrs by propidium iodide staining based flow cytometry (reference value: 29.45%); type: functional
NCI/ADR-RES [12] = test: Effect on P-gp protein expression in human MCF7/ADR cells at 0.05 to 0.1 uM after 24 to 48 hrs by Western blot analysis; type: functional, cell-based
[13] = AUC (0 to infinity) in Sprague-Dawley rat at 10 mg/kg, iv administered as single dose by LC-MS/MS analysis; type: ADME, organism-based; set-up: dose 10 mg/kg, route intravenous, time infinity; conditions: in vivo
[14] = Apparent volume of distribution in Sprague-Dawley rat at 10 mg/kg, iv administered as single dose by LC-MS/MS analysis; type: ADME, organism-based; conditions: in vivo, read-out: Vz
[15] = Plasma concentration in Sprague-Dawley rat at 10 mg/kg, iv administered as single dose measured at 24 hrs post dosing by LC-MS/MS analysis; type: ADME, organism-based

For `C[C@H]1[C@@H](Oc2ccc(-c3cc(-c4ccccc4)[nH]n3)cc2)O[C@@H]2O[C@@]3(C)CC[C@H]4[C@H](C)CC[C@@H]1[C@@]24OO3`, which GI50 (MDA-MB-231) is on record?
Its GI50 is 240 nM.

What about the RatioGI50 [1] of the same compound?
Its RatioGI50 is 11.7.

And the Activity (MCF7 [2])?
The Activity was 0.56%.

And the Activity (MCF7 [3])?
The Activity was 72.58%.

And the Activity (MCF7 [4])?
The Activity was 0.38%.

And the Activity (MCF7 [5])?
The Activity was 17.38%.

And the Activity (MCF7 [6])?
The Activity was 1.44%.

And the Activity (MCF7 [7])?
The Activity was 11.53%.

And the Activity (NCI/ADR-RES [8])?
The Activity was 9.75%.

And the Activity (NCI/ADR-RES [9])?
The Activity was 23.83%.

What about the Activity (NCI/ADR-RES [10]) of the same compound?
Its Activity is 46.94%.

And the Activity (NCI/ADR-RES [11])?
Its Activity is 20.41%.

And the Activity (NCI/ADR-RES [12])?
Its Activity is “inactive”.

What about the AUC(0-inf) [13] of the same compound?
Its AUC(0-inf) is 2920 ng·h/mL.

And the Vd [14]?
Its Vd is 18 L/kg.

What about the concentration at 24 h [15] of the same compound?
Its concentration at 24 h is 2.65 ng/mL.
